Results taken from patent publication US20240226066A1, “CARDIOPROTECTION BY AUTOPHAGY INDUCTION AND METABOLIC REPROGRAMMING” (UNIVERSITE PARIS-SACLAY, priority 2021, published 2024).

Tests used:
Type in all cases: cell-based, rat
BAX = assay: Western blot of BAX expression in RNVCs; conditions: 6 h treatment
Description: Levels of protein expression of BCL-2 (FIG. 3A and FIG. 3B) BXL-XL (FIG. 3C) and BAX (FIG. 3C), in the RNVCs after 6 h of treatment (FIG. 3A, FIG. 3C, FIG. 3D) or 24 h (FIG. 3B). Co., untreated cell control. Each experiment was reproduced at least three times. Representative western blotting images and quantification of three independent experiments are presented as mean±SEM with single-factor ANOVA, with multiple Sidak comparisons. *, p<0.05 with respect to DMSO.
(§1) The H9C2 cells and RNVCs were detached in LB containing: 50 mM Tris, 150 mM NaCl, 1 mM EDTA, 0.5% deoxycholate, 1% Triton X 100, 0.1% SDS (pH 8.0). The cells were collected and placed on ice for 30 minutes. The cells were then centrifuged at 2000 g for 20 minutes at for 4° C. The supernatant was transferred to a new tube and stored on ice. The protein concentration was determined by BCA assay. The protein samples were diluted with sample buffer (2× Laemmli, Sigma), mixed, and heated for 5 minutes at 95° C. […] The images were recorded with a gel imaging system (Bio Rad). […]

H9C2 cells [1] = assay: Mitochondrial morphology and abundance by transmission electron microscopy; conditions: compared to DMSO; for mitochondrial number, size and morphology by transmission electron microscopy: 1 μM
Description: The cells were treated with a vehicle (0.01% DMSO), 1 μM digoxin, 1 μM SG6163F, 10 μM SG6163F, fixed with glutaraldehyde and analyzed by transmission electron microscopy. The cells treated with digoxin and with 10 μM SG6163F have many shorter round mitochondria compared with the control which has long thin mitochondria (FIG. 7B, FIG. 7D versus FIG. 7A).
Transmission electron microscopy. For ultrastructural analysis, the cells were fixed in 1.6% glutaraldehyde in a 0.1 M phosphate buffer, rinsed in a 0.1 M cacodylate buffer, and post-fixed for 1 h in 1% osmium tetroxide and 1% potassium ferrocyanide in a 0.1 M cacodylate buffer to improve the coloration of the membranes. The cells were rinsed in distilled water, dehydrated in alcohols and finally embedded in epoxy resin. Contrasting ultrafine sections (70 nm) were analyzed under a JEOL 1400 transmission electron microscope with a Morada Olympus CCD camera.
Due to the importance of mitochondria and reactive oxygen species (ROS) levels in the fate of cardiomyocyte cells, the hypothesis that the compounds could impact the mitochondrial network was explored. Following treatment of the RNVCs with the compounds tested, the mitochondrial network was stained with 200 nM of Mitotracker and the cell volume with 4 μM of calcein-AM. Thus, the mitochondrial network and the individual mitochondria were then analyzed using the IMARIS software.

H9C2 cells [2] = assay: Seahorse XF Cell Mito stress test (OCR)
Description: FIG. 8B: the H9c2 cells were treated with the compounds for 6 h, then a mitochondrial respiration stress test was carried out.
The XFe96 extracellular flow analyzer (Seahorse Biosciences, North Billerica, MA, USA) was used to measure the bioenergetic function of H9C2 cardiomyocytes. The H9C2 cells were seeded at 20 000 cells per well in XF96 cell culture microplates; all the pretreatments were carried out with serum-free cell culture medium. The Agilent Seahorse XF glycolysis stress test was performed to measure glycolytic function in the H9C2 cells; the extracellular acidification rate (ECAR) was measured sequentially by 3 injections, 10 mM glucose, 2 μM oligomycin and 50 mM 2-deoxy-D-glucose (2-DG). The Agilent Seahorse XF Cell Mito stress test measured key parameters of mitochondrial function by directly measuring the oxygen consumption rate (OCR) of the H9C2 cells. The test used the built-in injection ports on XF sensor cartridges to add respiration modulators into the cell well during the test in order to reveal key parameters of mitochondrial function. Oligomycin at 2 μM was injected first after the baseline measurements. Then 1 μM of […] (FCCP) was injected. The third injection corresponds to 0.5 μM of antimycin A, to stop mitochondrial respiration. The oxidation of the exogenous fatty acids was measured simultaneously using the XF palmitate-BSA FAO substrate kit with the mitochondrial stress test on XF cells. The substrate-limited medium is DMEM with 0.5 mM glucose, 1 mM GlutaMAX, 0.5 mM carnitine and 1% fetal calf serum. Carnitine was added freshly on the day of the change of medium. The FAO test medium contains 111 mM NaCl, 4.7 mM KCl, 1.25 mM CaCl2, 2 mM MgSO4, 1.2 mM NaH2PO4, supplemented with 2.5 mM glucose, 0.5 mM carnitine and 5 mM HEPES on the day of the test, adjusted to pH 7.4 at 37° C. The H9C2 cells were seeded at 20 000 cells per well in XF96 cell culture microplates. […]
Next, the energy metabolism was analyzed in real time using the Seahorse technology in H9C2 cells.

MFN1 = assay: Western blot of MFN1 in RNVCs
Description: FIG. 6C: MFN1 and MFN2 protein levels in RNVCs analyzed by western blotting.
as §1
Due to the importance of mitochondria and reactive oxygen species (ROS) levels in the fate of cardiomyocyte cells, the hypothesis that the compounds could impact the mitochondrial network was explored. […] Thus, the mitochondrial network and the individual mitochondria were then analyzed using the IMARIS software.

SMILES	expression of pro-apoptotic BAX protein (BAX)	mitochondrial number, size and morphology by transmission electron microscopy (H9C2 cells [1])	mitochondrial number and size by transmission electron microscopy (H9C2 cells [1]; 10 μM)	OXPHOS (H9C2 cells [2]; independently of the substrates)	expression of fusion protein MFN1 (MFN1)	ATP production by oxidative phosphorylation (OXPHOS) (H9C2 cells [2]; glucose and pyruvate as substrates, 6 h)
O=C1NC(c2ccccc2)=N/C1=C\c1cc2ccccc2c2ccccc12 [SG6163F]	significantly decreased	did not affect the morphology of the mitochondria	increase in the number of mitochondria and a decrease in their size	boost OXPHOS		
C[C@]12CC[C@H](O)C[C@H]1CC[C@@H]1[C@@H]2CC[C@]2(C)[C@@H](C3=CC(=O)OC3)CC[C@]12O [digitoxigenin]					decreased	improved ATP production by oxidative phosphorylation
C[C@H]1O[C@@H](O[C@H]2[C@@H](O)C[C@H](O[C@H]3[C@@H](O)CC(O[C@H]4CC[C@@]5(C)[C@H](CC[C@@H]6[C@@H]5C[C@@H](O)[C@]5(C)[C@@H](C7=CC(=O)OC7)CC[C@]65O)C4)O[C@@H]3C)O[C@@H]2C)C[C@H](O)[C@@H]1O (stereo partly drawn) [digoxin]	significantly decreased	increase in the number of mitochondria and a decrease in their size			decreased	
